Test results reported in ChEMBL document CHEMBL1201862, “PubChem BioAssay data set” (2004).
Active and inactive are the calls of the source.

Columns and labels:
[1] = inhibitors of firefly luciferase expression or activity, dose response, H4 neuroglioma cells, luminescence (AID 1990); type: functional, cell-based
[2] = target: T1, RNA-binding protein pos-1 (Caenorhabditis elegans, UniProt G5EF15); experiment: inhibitors of POS-1/mex-3 RNA binding, dose response, biochemical, fluorescence polarization (AID 1964);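 also: purified POS-1 fused to maltose binding protein made in E. coli; potency of compounds blocking POS-1 binding to fluorescent RNA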
T1 sequence (G5EF15 whole entry): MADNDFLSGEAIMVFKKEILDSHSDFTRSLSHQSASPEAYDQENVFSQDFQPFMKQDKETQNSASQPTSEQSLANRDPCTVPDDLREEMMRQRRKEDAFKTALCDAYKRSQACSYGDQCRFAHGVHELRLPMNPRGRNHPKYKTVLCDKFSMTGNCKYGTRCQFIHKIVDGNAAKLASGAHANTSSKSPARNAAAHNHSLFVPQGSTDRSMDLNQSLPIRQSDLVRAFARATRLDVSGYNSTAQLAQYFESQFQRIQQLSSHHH

[3] = Luminescence Cell-Based Dose Response HTS to Identify Inhibitors of 5'UTR Stem-Loop Driven Prion Protein mRNA Translation in H4 Neuroglioblastoma Cells. [Related pubchem assays: 1827 (Project Summary), 1813 (Primary HTS)]; type: functional
[4] = target: T2, Zinc finger protein mex-5 (Caenorhabditis elegans, UniProt Q9XUB2); experiment: MEX-5/TCR-2 RNA interaction inhibitors, dose response, biochemical, C. elegans, fluorescence polarization (AID 1960)
T2 sequence (Q9XUB2 whole entry): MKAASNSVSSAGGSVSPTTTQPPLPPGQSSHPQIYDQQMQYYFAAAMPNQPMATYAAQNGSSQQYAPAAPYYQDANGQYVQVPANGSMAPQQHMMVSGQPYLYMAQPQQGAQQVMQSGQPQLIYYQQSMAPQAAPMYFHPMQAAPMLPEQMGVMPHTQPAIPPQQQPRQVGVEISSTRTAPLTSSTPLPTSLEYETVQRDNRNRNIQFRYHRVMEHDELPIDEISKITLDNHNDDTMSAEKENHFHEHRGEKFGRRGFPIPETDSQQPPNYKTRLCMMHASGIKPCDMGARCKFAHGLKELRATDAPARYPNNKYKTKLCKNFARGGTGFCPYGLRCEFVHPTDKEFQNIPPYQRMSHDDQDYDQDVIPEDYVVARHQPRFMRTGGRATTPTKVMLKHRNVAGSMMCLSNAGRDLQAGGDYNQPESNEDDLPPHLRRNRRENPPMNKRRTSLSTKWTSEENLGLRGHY

[5] = inhibitors of SNCA 5'UTR-driven reporter translation, confirmation, H4 neuroglioma cells, luminescence (AID 1988); type: functional, cell-based
[6] = target: Large T antigen (Simian virus 40, UniProt P03070); type: functional, Betapolyomavirus macacae;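 also: Confirmatory-stage PubChem screen for compounds that inhibit SV40 T antigen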
[7] = target: T3, CAAX prenyl protease 2 (Saccharomyces cerevisiae S288c, UniProt Q03530); type: biochemical
T3 sequence (Q03530 whole entry): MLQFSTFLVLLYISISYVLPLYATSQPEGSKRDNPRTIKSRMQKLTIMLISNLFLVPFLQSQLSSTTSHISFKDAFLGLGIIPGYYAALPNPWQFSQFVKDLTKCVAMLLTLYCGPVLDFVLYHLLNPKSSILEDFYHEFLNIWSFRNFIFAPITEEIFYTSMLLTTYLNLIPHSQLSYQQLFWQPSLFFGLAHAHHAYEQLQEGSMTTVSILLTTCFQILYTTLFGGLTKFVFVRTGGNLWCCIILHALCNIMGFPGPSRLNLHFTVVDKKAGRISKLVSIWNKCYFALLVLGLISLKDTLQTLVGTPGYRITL

[8] = target: FAD-linked sulfhydryl oxidase ALR (Homo sapiens, UniProt P55789); experiment: inhibitors of human ALR sulfhydryl oxidase, dose response, biochemical, H2O2 detection, luminescence, cherry-pick (AID 493248)
[9] = target: T4, Hexokinase HKDC1 (Homo sapiens, UniProt Q2TB90); experiment: HKDC1 hexokinase inhibitors, dose response, biochemical, W721R variant (AID 504729); type: functional
T4 sequence (Q2TB90 whole entry): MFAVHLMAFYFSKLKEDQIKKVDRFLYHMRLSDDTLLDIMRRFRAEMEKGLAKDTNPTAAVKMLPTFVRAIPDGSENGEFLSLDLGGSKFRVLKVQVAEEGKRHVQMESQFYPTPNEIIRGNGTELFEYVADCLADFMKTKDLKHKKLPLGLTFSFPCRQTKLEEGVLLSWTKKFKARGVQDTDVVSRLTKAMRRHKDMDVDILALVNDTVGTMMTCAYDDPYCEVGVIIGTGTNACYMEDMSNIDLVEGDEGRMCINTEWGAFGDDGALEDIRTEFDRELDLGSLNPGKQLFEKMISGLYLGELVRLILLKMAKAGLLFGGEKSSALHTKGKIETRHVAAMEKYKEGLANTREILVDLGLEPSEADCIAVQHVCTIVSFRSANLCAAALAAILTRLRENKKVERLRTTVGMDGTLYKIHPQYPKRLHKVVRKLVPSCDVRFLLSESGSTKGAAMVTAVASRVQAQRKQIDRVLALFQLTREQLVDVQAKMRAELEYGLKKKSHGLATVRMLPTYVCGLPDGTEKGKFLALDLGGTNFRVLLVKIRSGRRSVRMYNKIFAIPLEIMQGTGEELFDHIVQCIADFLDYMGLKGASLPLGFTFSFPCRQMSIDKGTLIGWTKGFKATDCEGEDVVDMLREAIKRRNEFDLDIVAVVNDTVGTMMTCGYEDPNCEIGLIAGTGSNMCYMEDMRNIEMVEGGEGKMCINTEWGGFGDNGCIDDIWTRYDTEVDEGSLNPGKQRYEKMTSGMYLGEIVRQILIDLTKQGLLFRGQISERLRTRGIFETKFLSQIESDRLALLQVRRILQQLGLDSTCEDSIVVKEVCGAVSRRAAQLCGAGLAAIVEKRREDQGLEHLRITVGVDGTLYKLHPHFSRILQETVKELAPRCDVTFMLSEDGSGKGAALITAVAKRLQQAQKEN

[10] = mammalian cell cytotoxicity, dose response, cytotoxicity control, plate reader, cherry-pick samples (AID 504397); type: functional, cell-based
[11] = target: T5, Protein RecA (Mycobacterium tuberculosis, UniProt P9WHJ3); experiment: Fluorescence Cell-Free Homogeneous Dose Retest to Identify Inhibitors of RecA-Intein Splicing Activity. [Related pubchem assays (depositor defined):AID2097, AID2223, AID489010, AID492950]; type: functional
T5 sequence (P9WHJ3 whole entry): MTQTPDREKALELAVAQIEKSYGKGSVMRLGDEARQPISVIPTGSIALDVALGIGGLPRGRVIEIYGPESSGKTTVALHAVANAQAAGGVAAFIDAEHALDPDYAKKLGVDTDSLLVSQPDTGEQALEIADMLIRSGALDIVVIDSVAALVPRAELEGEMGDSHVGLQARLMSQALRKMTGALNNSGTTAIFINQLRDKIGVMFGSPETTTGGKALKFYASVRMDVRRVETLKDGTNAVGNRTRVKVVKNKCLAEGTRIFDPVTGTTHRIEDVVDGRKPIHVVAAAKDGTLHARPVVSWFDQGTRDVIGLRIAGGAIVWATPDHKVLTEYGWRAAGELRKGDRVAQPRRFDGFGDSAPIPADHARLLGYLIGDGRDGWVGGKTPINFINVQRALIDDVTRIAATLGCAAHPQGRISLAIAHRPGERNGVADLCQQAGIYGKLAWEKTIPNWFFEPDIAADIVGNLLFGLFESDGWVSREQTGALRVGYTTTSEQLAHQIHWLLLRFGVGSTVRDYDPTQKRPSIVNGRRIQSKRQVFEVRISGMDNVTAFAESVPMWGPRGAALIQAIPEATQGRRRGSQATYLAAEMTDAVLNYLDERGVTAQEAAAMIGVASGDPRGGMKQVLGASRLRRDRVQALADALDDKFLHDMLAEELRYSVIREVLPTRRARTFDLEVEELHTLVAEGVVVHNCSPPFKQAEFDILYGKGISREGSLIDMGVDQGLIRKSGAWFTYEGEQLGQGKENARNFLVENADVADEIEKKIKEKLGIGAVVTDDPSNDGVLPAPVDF

[12] = target: Dual specificity tyrosine-phosphorylation-regulated kinase 1A (Rattus norvegicus, UniProt Q63470); type: biochemical, Homo sapiens
[13] = inhibitors of intracellular T. cruzi replication, confirmation, NIH3T3 host cells, beta-gal luminescence (AID 2044); type: functional, cell-based;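 also: intracellular parasites grown in NIH/3T3 mouse fibroblasts as host cells; luminescent beta-galactosidase reporter signal from transgenic T. cruzi replicating inside host cells; inhibitors lower the luminescence signal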
[14] = cytotoxicity toward NIH3T3 fibroblasts, dose response, counter-screen, cell-based, ATP luminescence, mouse fibroblasts (AID 2010); type: functional;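 also: cells exposed to compound for about 90 hours before reading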
[15] = tested on: Escherichia coli; experiment: microbe, parasite or virus in culture
[16] = tested on: Escherichia coli; experiment: microbe, parasite or virus in culture; remark: listed apart in the source

Chain of Large T antigen (P03070 whole entry): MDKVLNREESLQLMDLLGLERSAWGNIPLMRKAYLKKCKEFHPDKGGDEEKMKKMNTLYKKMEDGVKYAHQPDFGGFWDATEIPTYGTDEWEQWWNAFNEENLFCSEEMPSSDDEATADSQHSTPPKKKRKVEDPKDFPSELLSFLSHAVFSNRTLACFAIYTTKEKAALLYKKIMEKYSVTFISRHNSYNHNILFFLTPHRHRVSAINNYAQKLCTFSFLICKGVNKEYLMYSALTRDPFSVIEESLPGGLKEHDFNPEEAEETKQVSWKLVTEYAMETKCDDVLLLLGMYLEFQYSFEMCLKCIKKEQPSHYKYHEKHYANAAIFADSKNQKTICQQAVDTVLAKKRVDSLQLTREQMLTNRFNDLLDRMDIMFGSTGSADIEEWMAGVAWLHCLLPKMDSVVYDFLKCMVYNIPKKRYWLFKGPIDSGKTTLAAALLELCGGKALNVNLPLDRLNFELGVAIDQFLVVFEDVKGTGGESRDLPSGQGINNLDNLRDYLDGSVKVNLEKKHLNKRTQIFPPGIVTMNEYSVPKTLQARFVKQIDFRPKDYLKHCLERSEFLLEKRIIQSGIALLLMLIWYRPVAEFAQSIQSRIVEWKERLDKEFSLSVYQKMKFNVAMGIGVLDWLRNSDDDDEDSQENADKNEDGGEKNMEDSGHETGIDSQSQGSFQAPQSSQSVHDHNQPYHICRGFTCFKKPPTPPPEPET
Chain of FAD-linked sulfhydryl oxidase ALR (P55789 whole entry): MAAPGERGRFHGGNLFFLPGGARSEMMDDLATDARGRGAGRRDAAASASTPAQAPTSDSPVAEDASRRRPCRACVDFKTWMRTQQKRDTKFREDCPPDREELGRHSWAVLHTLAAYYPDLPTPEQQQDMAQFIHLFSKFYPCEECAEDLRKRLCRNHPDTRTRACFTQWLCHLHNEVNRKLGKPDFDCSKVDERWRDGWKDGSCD

SMILES	EC50 [1]	EC50 [2]	EC50 [3]	EC50 [4]	EC50 [5]	IC50 [6]	AC50 [7]	AC50 [8]	IC50 [9]	AC50 [10]	EC50 [11]	AC50 [12]	EC50 [13]	EC50 [14]	AC50 [15]	AC50 [16]
CN1c2ccc(C=O)c3c(C=O)ccc(c23)N(C)C1(C)C	17.8 µM (active)	74 µM (inconclusive)	15.9 µM (active)	5.37 µM (inconclusive)	> 120 µM (not active)	23 µM (active)	10.5 µM (active)	1.54 µM (active)	13.1 µM (active)	45.7 µM (active)	59.9 µM (inconclusive)	0.199 µM (active)				
N#C/C(=C\c1ccc(N2CCCCC2)c([N+](=O)[O-])c1)c1nn(-c2ccccc2)c(N)c1C#N													1.81 µM (active)	> 30 µM (not active)	26.2 µM (active)	> 380 µM (inactive)
